Settings: Fluid (supercritical or subcritical phases), Brillouin Light Scattering

CC(C)OC(C)C [diisopropyl ether]
Settings | speed of sound [m/s]
541.51 K, 6500 kPa | 190.79
544.16 K, 3500 kPa | 139.1
545.71 K, 4500 kPa | 129.23
546.93 K, 5500 kPa | 147.8
547.24 K, 6500 kPa | 183.8
551 K, 3500 kPa | 147.92
554.09 K, 4500 kPa | 137.04
554.6 K, 5500 kPa | 142.16
555.23 K, 6500 kPa | 172.31
556.02 K, 3500 kPa | 156.04
562.71 K, 3500 kPa | 162.02
564.46 K, 4500 kPa | 151.45
564.68 K, 5500 kPa | 144.2
564.77 K, 6500 kPa | 162.69
568.12 K, 3500 kPa | 172.59
570.23 K, 4500 kPa | 159.8
570.32 K, 6500 kPa | 155.46
571.21 K, 5500 kPa | 149.54
572.24 K, 3500 kPa | 178.24
574.75 K, 6500 kPa | 156.08
575.87 K, 4500 kPa | 166.92
576.95 K, 5500 kPa | 157.61
578.05 K, 3500 kPa | 184.2
580.81 K, 6500 kPa | 160.95
582.97 K, 4500 kPa | 176.94
583.61 K, 3500 kPa | 191.39
583.79 K, 5500 kPa | 168.45
586.87 K, 6500 kPa | 165.44
587.28 K, 5500 kPa | 174.08
588.06 K, 4500 kPa | 184.23
588.82 K, 3500 kPa | 197.63
591.77 K, 3500 kPa | 201.8
592.03 K, 6500 kPa | 173.69
592.07 K, 4500 kPa | 191.01
592.51 K, 5500 kPa | 179.58
595.88 K, 6500 kPa | 181.47
597.6 K, 4500 kPa | 197.93
597.6 K, 5500 kPa | 185.96
597.62 K, 3500 kPa | 207.01
602.12 K, 3500 kPa | 213.74
602.56 K, 4500 kPa | 203.87
603.22 K, 6500 kPa | 189.62
603.37 K, 5500 kPa | 196.7
607.19 K, 4500 kPa | 209.92
607.26 K, 5500 kPa | 201.24
608.3 K, 3500 kPa | 220.34
608.98 K, 6500 kPa | 198.69
612.23 K, 3500 kPa | 223.95
612.23 K, 4500 kPa | 214.66
612.33 K, 5500 kPa | 208.84
612.73 K, 6500 kPa | 201.04
617.47 K, 4500 kPa | 220.52
618 K, 3500 kPa | 231.2
618.05 K, 5500 kPa | 215.78
618.31 K, 6500 kPa | 208.27
622.27 K, 3500 kPa | 235.81
623.05 K, 5500 kPa | 219.38
623.51 K, 4500 kPa | 226.31
623.75 K, 6500 kPa | 213.55
626.85 K, 5500 kPa | 224.98
627.63 K, 6500 kPa | 217.44
627.65 K, 3500 kPa | 240.7
628.55 K, 4500 kPa | 231.82
632.23 K, 4500 kPa | 235.83
632.72 K, 5500 kPa | 227.82
632.86 K, 3500 kPa | 243.95
633.54 K, 6500 kPa | 221.63
637.16 K, 6500 kPa | 225.18
638.22 K, 3500 kPa | 249.88
638.59 K, 4500 kPa | 240.88
638.75 K, 5500 kPa | 232.85
642.34 K, 6500 kPa | 228.66
643.55 K, 4500 kPa | 245.98
643.72 K, 3500 kPa | 254.88
644.35 K, 5500 kPa | 237.43
648.15 K, 5500 kPa | 239.71
648.16 K, 6500 kPa | 231.72
648.36 K, 3500 kPa | 257.88
648.6 K, 4500 kPa | 250.01
652.25 K, 4500 kPa | 253.58
652.83 K, 5500 kPa | 244.43
653.38 K, 3500 kPa | 263.46
653.97 K, 6500 kPa | 236.88
657.92 K, 5500 kPa | 246.91
658.37 K, 4500 kPa | 256.34
658.49 K, 6500 kPa | 239.95
658.61 K, 3500 kPa | 265.77
662.18 K, 5500 kPa | 249.76
662.28 K, 4500 kPa | 259.34
663.04 K, 6500 kPa | 242.15
664.11 K, 3500 kPa | 269.84
667.5 K, 5500 kPa | 252.59
667.83 K, 4500 kPa | 264.18
667.84 K, 6500 kPa | 245.05
668.59 K, 3500 kPa | 271.89
670.57 K, 5500 kPa | 254.53
671.41 K, 6500 kPa | 247.45
672.38 K, 4500 kPa | 265.43
672.56 K, 3500 kPa | 274.52

— the NIST ThermoML archive (doi:10.1016/j.jct.2016.09.005)
